Structures can show the parent of a compound that is named as a salt.
What was measured:
Type in all cases: cell-based, mouse
[1] = system: BMDMs; assay: Immunofluorescence, Mitotracker Red and dsRNA; conditions: LPS 4 h
Protocol: (§1) All compounds used DMSO as a vehicle except for 4-hydroxy tamoxifen (EtOH), NAC (PBS), and AOAA for tracing experiments (Media). LPS was used at a concentration of 100 ng/ml for indicated timepoints (2, 3, 4, 6, 8, 24, 48 h). FHIN1 (10 or 20 μM), MMF (50 or 100 μM), DMF (25 μM), AOAA (5 mM), oligomycin (10 μM), CCCP (50 μM) NAC (1 mM), and IMT1 (10 μM) pre-treatments were performed for 3 h prior the addition of LPS. Cells were treated with valinomycin (10 nM) 15 mins before LPS stimulation. Anti-CD210 or IgG control (10 μg/ml) antibodies were added to cells 1 h prior to LPS stimulation. Recombinant mouse IL-10 protein (100 ng/ml) was added to cells at the same time as LPS. Cells were treated with IFN-B1 (220 ng/ml) for 3 h. Cells were treated with C-178 (1 μM) 1 h prior to LPS stimulation or transfection with 2′3′-cGAMP (1.5 μg/ml) for 4 hrs to achieve cGAS-STING activation. Cells were treated with ODN 2088 (1 μM) for 1 hr prior to LPS stimulation or transfection with CPG ODN 1826 (1.5 μg/ml) to achieve TLR9 activation. 3 different timepoints of 4-hydroxy tamoxifen (TAM) (600 nM or 2 μM) or EtOH treatment were performed-these are specified in the individual figure legends. For ‘48 h’ treatments EtOH/TAM was added on day 5 of 6 during the BMDM differentiation protocol. On day 6 they were plated with EtOH/TAM (left overnight) and treated the following day. For ‘72 h’ treatments EtOH/TAM was added on day […] of 6 during the BMDM differentiation protocol. On day 6 they were plated with EtOH/TAM (left overnight) and treated the following day. For ‘96 h’ treatments EtOH/TAM was added on day […] of 6 during the BMDM differentiation protocol. On day 6 they were plated with EtOH/TAM and treated 2 days later.
Cells were plated on 20 mm cover slips in 12-well plates. Cells were treated as required and Mitotracker Red CMXRos (100 nM, Thermo Fisher), was added to medium 30 mins prior to end of cell treatments. After 30 min incubation, cells were washed three times with warm PBS. Cells were subsequently fixed for 10 mins with 4% paraformaldehyde/PBS at 37° C. Cells were washed three times with PBS and permeabilized for 1 hour in block solution (1% BSA, 22.52 mg/ml glycine, 0.1% tween 20 in PBS). Anti-dsRNA antibody (Merck) was diluted 1/60 in block solution and incubated with cells overnight at room temperature. Cells were washed three times with PBS for 5 mins/wash. […] Images were analysed using the LAS X Life Science Microscope Software Platform (Leica). The same microscope instrument settings were used for all samples and all images were analysed using the same settings. […] Quantification of dsRNA or Mitotracker Red CMXRos signal intensity was performed using the measure function in ImageJ 1.53t (NIH).

[2] = system: BMDMs; assay: Digitonin fractionation, qPCR of mtDNA and mtRNA
Protocol: as §1
BMDMs were plated at 0.5×10^6 cells/well and treated as desired. After treatment, cells were washed once with room temperature PBS, before being scraped on ice into ice cold PBS and pelleted at 500×g for 5 mins at 4° C. Supernatant was removed and discarded, and the pellet was resuspended in 400 μl extraction buffer (150 mM NaCl, 50 mM HEPES pH 7.4, 25 μg/ml digitonin). Samples were then placed in a rotating mixer at 4° C. for 10 mins before centrifugation at 2000×g at 4° C. for 5 mins. The resulting supernatant constituted the cytosolic fraction, from which RNA and DNA were isolated using an AllPrep DNA/RNA Mini Kit (Qiagen). Alternatively, the cytosolic fraction was concentrated using Strataclean Resin (Agilent) and analysed by western blot. The pellet constituted a fraction containing membrane-bound organelles which was lysed in RNA lysis buffer for RNA isolation or lysed in western blot lysis buffer for analysis by western blot. To determine the presence of mtRNA and mtDNA in the cytosol, qPCR was performed using primers specific for mitochondrial D-loop on cDNA which had been reverse-transcribed from RNA isolated from the cytosolic fraction (mtRNA) and on DNA isolated from the cytosolic fraction (mtDNA). In both cases, values were normalised using a housekeeping control gene (β-actin) amplified in cDNA which had been reverse-transcribed from RNA isolated from the membrane-bound fraction.

[3] = system: MAVS; assay: MAVS oligomerisation; conditions: BMDMs pre-treated, LPS 4 h
Protocol: BMDMs were plated at 1×10^6 cells/well in technical triplicate and treated as desired. After treatment, cells were washed twice with 200 μl cold PBS before being lysed in crosslinking lysis buffer (50 mM HEPES, 0.5% triton X-100, 1X protease inhibitor cocktail). Samples were placed on ice for 15 mins. Lysates were centrifuged for 15 mins at 6000×g at 4° C. and the supernatant was removed and frozen down as the ‘soluble fraction.’ 20 μl of the soluble fraction was mixed with 5 μl of sample lysis buffer (0.125 M Tris pH 6.8, 10% glycerol, 0.02% SDS, 5% DTT) and run on a 10% gel. The insoluble pellet was resuspended in HEPES (50 mM) and washed 3 times by centrifuging at 6000×g at 4° C. and removing the supernatant each time. After the final wash, the pellet was resuspended in 500 μl crosslinking buffer (50 mM HEPES, 150 mM NaCl) and disuccinimidyl suberate (DSS, Thermo Fisher, made up in anhydrous DMSO) was added to the final concentration of 2 mM. Immediately following the addition of DSS, the sample was inverted several times and incubated for 45 mins at 37° C. The sample was then centrifuged for 15 mins at 6000×g at 4° C., before the supernatant was removed and the pellet was resuspended in 30 μl sample lysis buffer. The resuspended ‘insoluble fraction’ was subsequently boiled for 5 mins at 95° C. before being run on a gel.

CCOC(=O)[C@@]12CCCC=C1N(Cc1ccc(-c3ccccc3)cc1)C(=O)[C@H]2CC(=O)NC [FHIN1, Fumarate hydratase-IN-1] was tested, and the “staining intensity of mitotracker RED (mtRED), MMP-dependent dye” value ([1]; BMDMs pre-treated 3 h) was “increased staining intensity”, the “dsRNA accumulation (immunofluorescence)” value ([1]; BMDMs pre-treated, relative to DMSO control) was “accumulation” and the “mtRNA in whole cell fraction” value ([2]; BMDMs pre-treated, LPS 4 h) was “not in the whole cell fraction”. The “mtDNA in cytosolic extracts (D-loop)” value ([2]; digitonin-fractionated BMDMs) was “increase”, the “mtRNA in cytosolic extracts” value ([2]; digitonin-fractionated BMDMs) was “increased” and the MAVS oligomerisation [3] was “observed MAVS oligomerisation”.
